Data set [1] has as its target T1, MATE1 (Homo sapiens, UniProt Q96FL8).
T1 construct: expressed in transfected cells; host or cells: MDCKII (MDCK-MATE1)
Nature of the data set: Transcellular transport assay across MDCK-MATE1 monolayers. It counts as cell-based. As to conditions: 10 μM efavirenz, 2 h. As for the experimental part: (§1) Transport experiments employing polarized monolayers of MDCK-OCT1, MDCK-OCT2, or MDCK-MATE1 cell lines as well as doubly transfected MDCK-OCT1-MATE1 or MDCK-OCT2-MATE1 lines and the non-transfected parental control MDCK-Co cells grown on Transwell 3402 cell culture inserts (3.0 μm pore size, 24 mm diameter; Costar, Corning, NY) were performed as described previously. The number of cells per well was 0.5 x 10^6 in all experiments, and the cells were incubated for 3 days to confluence in standard cultivation medium MEM (Gibco) + 10% FBS. After 3 days’ cultivation, medium was removed from both sides and the cells of the monolayer were washed using pre-warmed PBS. […] The pH of the medium on the basolateral side was 7.4, while that on the apical side was set to 6.0 (adjusted by adding HCl or NaOH, when necessary) to ensure optimal MATE1 transport activity. Cells were incubated at 37°C in 5% CO2 for 2 hours. At the end of the incubation period, 50 μl aliquots were sampled and the rest of the medium was immediately removed. The cells were then washed twice with ice-cold PBS, the membranes supporting cellular monolayers were excised, and the cells were dissolved in a 0.02% SDS solution. The radioactivity of the collected samples and lysed monolayers was measured by liquid scintillation counting (Tri-Carb 2910 TR Perkin Elmer), and the protein concentration of the cell lysates was quantified using the BCA protein assay. Transport rates were recorded in pmol per mg protein in the cellular monolayer.

The next data set has as its target T2, OCT2 (Homo sapiens, UniProt O15244).
T2 construct: expressed in transfected cells; host or cells: MDCKII (MDCK-OCT2)
T2 sequence (O15244 1-555): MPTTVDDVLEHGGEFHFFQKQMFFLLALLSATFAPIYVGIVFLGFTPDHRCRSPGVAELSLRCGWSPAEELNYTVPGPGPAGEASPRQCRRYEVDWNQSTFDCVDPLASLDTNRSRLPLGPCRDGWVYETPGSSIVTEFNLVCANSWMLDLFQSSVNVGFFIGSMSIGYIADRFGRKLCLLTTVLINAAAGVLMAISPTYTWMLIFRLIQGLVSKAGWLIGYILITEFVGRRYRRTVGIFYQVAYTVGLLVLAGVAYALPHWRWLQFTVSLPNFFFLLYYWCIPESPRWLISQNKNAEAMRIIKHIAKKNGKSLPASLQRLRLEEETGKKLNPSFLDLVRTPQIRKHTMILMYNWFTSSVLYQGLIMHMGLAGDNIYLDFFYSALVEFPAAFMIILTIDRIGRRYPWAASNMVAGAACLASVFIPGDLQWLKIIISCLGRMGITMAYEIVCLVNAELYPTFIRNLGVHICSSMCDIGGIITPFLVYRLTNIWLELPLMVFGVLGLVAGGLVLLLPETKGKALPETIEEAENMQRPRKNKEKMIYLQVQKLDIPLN
Nature of the data set: Transcellular transport assay across MDCK-OCT2 monolayers. It counts as cell-based. To be noted: 10 μM efavirenz, 2 h. The protocol: as §1

In another data set the test system is parental MDCK cell line. Kind of data set: Calcein efflux assay in parental MDCK cells. As to conditions: calcein AM 0.25 μM, efavirenz 0.01–50 μM. It counts as cell-based, canine. The protocol:
ABC transporter-expressing MDCK cells were seeded in 96-well plates at a density of 25 x 10^3 cells per well and cultivated in DMEM medium supplemented with 10% FBS. […] Intracellular fluorescence was then measured using excitation and emission wavelengths of 350 nm and 465 nm, respectively. […] Calcein fluorescence was measured using excitation and emission wavelengths of 496 nm and 516 nm, respectively.

The next data set relates to MDCK cell lines. Nature of the data set: Cytotoxicity seen in accumulation assays in MDCK cell lines. The data set is classed as cell-based, canine. As to conditions: 100 μM, highest tested concentration, all accumulation assays and MDCK cell lines. The text has this:
Therefore, both relative and absolute IC50 values are reported (Fig 3).

The target in a further data set is MDR1 (Homo sapiens, UniProt P08183). Kind of data set: Hoechst 33342 accumulation assay in MDCK-MDR1 cells.
For a further data set, the system named is human OCT1. Also noted: method as in PMID 18490433. To be noted: 5 μM efavirenz, 1 min incubation; cited from earlier work.
The target of data set [2] is T1, MATE1. Nature of the data set: Inhibition of net [14C]-metformin uptake in MDCK-MATE1 cells. It counts as cell-based. As to conditions: 50 μM metformin, 5 min, pH 8.0, efavirenz 0.01–50 μM, read-out: IC50, inhibition of net MATE1-mediated [14C]-metformin uptake. The protocol:
The singly-transfected OCT1, OCT2, MATE1 or control MDCK cells were seeded on 12-well plates at a density of 0.5 x 10^6 cells per well and cultivated in standard cultivation medium MEM (Gibco) + 10% FBS. Forty-eight hours after seeding, uptake experiments with radiolabelled metformin were performed. Cells were washed with 500 μl pre-warmed HBSS buffer of pH 7.4 (for OCTs) or 8.0 (for MATE1). Solutions of [^14C]-metformin (50 μM) in HBSS buffer of pH 7.4 or 8.0 with or without efavirenz were then added, and the resulting mixtures were left to stand for an accumulation period of 5 minutes. […] After the accumulation period, the solutions were aspirated and the cells were washed three times with 500 μl ice-cold HBSS buffer of pH 7.4 or 8.0 before being lysed with 0.02% sodium dodecyl sulphate (SDS). The intracellular accumulation of radioactivity was detected using a liquid scintillation counter (Tri-Carb 2910 TR Perkin Elmer), and protein concentrations in the cell lysates were measured by the BCA protein assay. Net transporter-mediated uptake was obtained by subtracting the accumulation of metformin in vector control cells from that in drug transporter-overexpressing cells.
A p value of ≤ 0.05 was considered statistically significant. […]

Another data set deals with OCT1 and MATE1. Kind of data set: Transcellular transport assay across doubly transfected MDCK-OCT1-MATE1 monolayers. As to conditions: 10 μM efavirenz, 2 h. The data set is classed as cell-based, human. As for the experimental part:
as §1

SMILES strings stand for the structures.

A word on the IC50: it is the concentration that gives 50% inhibition.

MDR1, sequence (P08183 whole entry): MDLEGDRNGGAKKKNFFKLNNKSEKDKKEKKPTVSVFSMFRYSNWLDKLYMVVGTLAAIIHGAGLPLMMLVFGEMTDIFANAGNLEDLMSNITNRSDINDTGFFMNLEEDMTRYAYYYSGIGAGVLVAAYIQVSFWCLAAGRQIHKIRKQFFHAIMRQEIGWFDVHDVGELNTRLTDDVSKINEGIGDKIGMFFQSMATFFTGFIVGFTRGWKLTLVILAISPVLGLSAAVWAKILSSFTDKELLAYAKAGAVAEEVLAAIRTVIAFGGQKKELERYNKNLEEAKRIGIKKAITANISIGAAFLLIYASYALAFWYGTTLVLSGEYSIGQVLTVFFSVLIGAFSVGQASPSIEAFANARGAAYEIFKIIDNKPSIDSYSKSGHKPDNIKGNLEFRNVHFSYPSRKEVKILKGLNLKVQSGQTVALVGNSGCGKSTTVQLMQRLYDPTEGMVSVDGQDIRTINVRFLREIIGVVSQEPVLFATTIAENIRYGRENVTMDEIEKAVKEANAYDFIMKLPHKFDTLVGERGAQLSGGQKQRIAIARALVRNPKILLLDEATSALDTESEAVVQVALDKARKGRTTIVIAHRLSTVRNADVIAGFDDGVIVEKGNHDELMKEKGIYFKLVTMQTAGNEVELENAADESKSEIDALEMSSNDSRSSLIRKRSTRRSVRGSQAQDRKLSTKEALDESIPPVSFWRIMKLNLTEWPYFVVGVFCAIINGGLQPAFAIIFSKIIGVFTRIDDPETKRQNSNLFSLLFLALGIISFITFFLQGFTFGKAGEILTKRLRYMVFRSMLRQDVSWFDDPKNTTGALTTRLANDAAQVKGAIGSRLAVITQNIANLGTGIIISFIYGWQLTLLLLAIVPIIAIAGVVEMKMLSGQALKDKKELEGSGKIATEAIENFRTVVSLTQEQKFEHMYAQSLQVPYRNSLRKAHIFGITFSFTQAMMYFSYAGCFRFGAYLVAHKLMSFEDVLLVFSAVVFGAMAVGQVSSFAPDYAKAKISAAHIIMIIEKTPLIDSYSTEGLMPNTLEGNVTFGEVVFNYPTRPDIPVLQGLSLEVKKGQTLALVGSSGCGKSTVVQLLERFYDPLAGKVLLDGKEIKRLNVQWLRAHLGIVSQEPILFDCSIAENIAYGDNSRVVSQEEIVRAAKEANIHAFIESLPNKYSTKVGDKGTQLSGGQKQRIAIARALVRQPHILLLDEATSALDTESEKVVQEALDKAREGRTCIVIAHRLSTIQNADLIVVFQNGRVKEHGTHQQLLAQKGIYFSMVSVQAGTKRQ
T1 sequence (Q96FL8 whole entry): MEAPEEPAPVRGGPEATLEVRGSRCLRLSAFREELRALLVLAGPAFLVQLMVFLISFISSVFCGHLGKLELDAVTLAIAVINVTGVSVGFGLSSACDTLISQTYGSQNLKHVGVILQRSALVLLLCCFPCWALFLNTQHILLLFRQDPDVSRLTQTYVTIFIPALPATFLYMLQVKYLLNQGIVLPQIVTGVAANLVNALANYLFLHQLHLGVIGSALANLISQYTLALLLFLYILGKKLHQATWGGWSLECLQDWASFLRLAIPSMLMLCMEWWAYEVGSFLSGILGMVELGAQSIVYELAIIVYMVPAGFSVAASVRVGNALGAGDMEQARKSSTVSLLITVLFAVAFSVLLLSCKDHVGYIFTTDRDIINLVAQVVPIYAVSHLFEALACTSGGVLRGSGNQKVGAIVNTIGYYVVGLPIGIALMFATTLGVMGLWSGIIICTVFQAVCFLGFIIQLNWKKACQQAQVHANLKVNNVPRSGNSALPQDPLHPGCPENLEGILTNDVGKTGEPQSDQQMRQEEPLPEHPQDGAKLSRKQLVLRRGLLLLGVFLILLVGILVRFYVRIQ
Protocol for MDR1: ABC transporter-expressing MDCK cells were seeded in 96-well plates at a density of 25 x 10^3 cells per well and cultivated in DMEM medium supplemented with 10% FBS. Forty-eight hours after seeding, the cells were used in accumulation experiments with Hoechst 33342 (a common fluorescent substrate of MDR1 and BCRP) or efflux assays with Calcein (a fluorescent substrate of MRP2). Briefly, at the end of the 48 hours, the medium was aspirated and the cells were washed with pre-warmed PBS and then preincubated with efavirenz in Opti-MEM for 30 minutes. In the Hoechst 33342 assays, a solution of Hoechst 33342 (50 μg/ml) in Opti-MEM was added and allowed to accumulate for 30 minutes. The experiment was stopped by aspirating the medium and washing the cells twice with ice cold PBS. Intracellular fluorescence was then measured using excitation and emission wavelengths of 350 nm and 465 nm, respectively. In the calcein efflux assays, a solution of calcein AM in Opti-MEM with or without efavirenz was added after the pre-incubation phase and allowed to accumulate for 15 minutes. […] Calcein fluorescence was measured using excitation and emission wavelengths of 496 nm and 516 nm, respectively.
Statistical analyses were performed using GraphPad Prism, version 7.03 (GraphPad Software, San Diego, CA). P values were calculated using multiple two-tailed t-tests or one-way ANOVA followed by Dunnett’s or Bonferroni’s multiple comparison test, as appropriate. […] The half-maximal inhibitory concentration (IC50) was calculated by non-linear regression analysis using sigmoidal Hill kinetics.
Model inhibitors of MDR1, BCRP and MRP2, namely LY335979 (LY, 1 μM), Ko143 (2.5 μM), and MK571 (10 μM), respectively, were used as positive controls at the minimal concentrations causing maximal inhibition in the corresponding cellular system and assay. […] Data were analyzed by one-way ANOVA followed by Bonferroni’s multiple comparison test (* P ≤ 0.05, ** P ≤ 0.01, *** P ≤ 0.001) and are presented as means ± SD of at least three experiments (n = 3–5) performed in triplicate.

Turning to `O=C1Nc2ccc(Cl)cc2[C@@](C#CC2CC2)(C(F)(F)F)O1` [efavirenz, Efavirenz], the “Effect on basolateral-to-apical transport of [3H]-MPP+” value at MATE1 [1] (2 nM MPP+, MDCK-MATE1) is on record as “Inhibition”; on OCT2 (2 nM MPP+, MDCK-OCT2) it was “Inhibition”; in the data set with OCT1 and MATE1 (2 nM MPP+, MDCK-OCT1-MATE1) it was “Inhibition”. Further, the “Effect on intracellular accumulation of [3H]-MPP+” value was “increased” at MATE1 [1] (2 nM MPP+, MDCK-MATE1 monolayers); “significantly reduced” at OCT2 (2 nM MPP+, MDCK-OCT2 monolayers); “unaffected” with OCT1 and MATE1 (2 nM MPP+, MDCK-OCT1-MATE1 monolayers). Besides, the “Effect on intracellular accumulation of [3H]-lamivudine” value at MATE1 [1] (10 nM lamivudine, MDCK-MATE1) is listed as “enhanced”; at OCT2 (10 nM lamivudine, MDCK-OCT2) it was “significantly reduced”; in the data set with OCT1 and MATE1 (10 nM lamivudine, OCT1-MATE1 cells), “remained unaffected”. Also, the “Effect on transcellular transport of [3H]-lamivudine” value at OCT2 (10 nM lamivudine, basal to apical, MDCK-OCT2) is recorded as “significantly inhibited”; in the data set on OCT1 and MATE1 (10 nM lamivudine, basal to apical, MDCK-OCT1-MATE1), “significantly inhibited”. Besides, the “Inhibition of calcein efflux from parental MDCK cells” value with parental MDCK cell line is recorded as “not”. Besides, in the data set with MDCK cell lines, the “Cytotoxicity in MDCK cell lines” value is “cytotoxicity”. In addition, on MDR1 (Hoechst 33342 accumulation), the “Concentrations showing an inhibitory effect on MDR1” value was at least 25 µM. In addition, the IC50 against MDR1 (MDR1 absolute IC50, Hoechst 33342 accumulation, control inhibitor LY335979 1 μM = 100%) was 33.3 µM; at MDR1 (MDR1 relative IC50, Hoechst 33342 accumulation, maximal inhibition by efavirenz alone = 100%), 24.4 µM; on MATE1 [2], 3.85 µM. Further, the “Inhibitory effect on OCT1 with MPP+ as substrate” value in the data set with human OCT1 is on record as “did not detect any inhibitory effect”.

(Values after article PMC6095608 (PLoS ONE, 2018).)
